The subject of one data set is human plasma proteins. Put plainly: Binding to human plasma proteins. The format is in vitro ADME.
The conditions of data set [1]: threshold = 1/2 of the TOL/TAZ MIC; cited from earlier work.
A further data set in a line: clinical. The settings on record: both, human, in vivo, 750 mg. The protocol: This was a Phase 1, multicenter, prospective, open-label study of 750 mg ceftolozane/tazobactam (as CXA-201) administered IV in male and female adult subjects with severe renal impairment (estimated CLCR<30 mL/min) and subjects with end-stage renal disease (ESRD) on hemodialysis (HD). The primary objective of the study was to determine the PK profile of ceftolozane/tazobactam in subjects with severe renal impairment and subjects with ESRD on HD and to determine the effect of HD on the clearance of ceftolozane/tazobactam.
Subjects with severe renal impairment received a single IV 1-hour infusion of 750 mg ceftolozane/tazobactam on Day 1. […] Subjects in this cohort received an IV dose of 750 mg ceftolozane/tazobactam as a 1 hour infusion immediately after their first HD session on Day 1 (post dialysis, approximately 72 hours prior to the next HD session) and a second dose of ceftolozane/tazobactam approximately 2 hours before their second HD session on Day 4 of the study. Infusion of ceftolozane/tazobactam was completed approximately 1 hour before the start of HD.
Subjects in both cohorts had urine (if not anuric) and plasma samples collected for determination of levels of ceftolozane, tazobactam and the M1 metabolite of tazobactam; subjects in the ESRD on HD cohort also had dialysate fluid samples collected for PK assessment. Plasma, urine, and dialysate levels of ceftolozane, tazobactam, and its metabolite M1 collected over a prespecified interval were determined by LC/MS/MS assay.

The structures appear in SMILES notation.

As for `C[C@]1(Cn2ccnn2)[C@H](C(=O)O)N2C(=O)C[C@H]2S1(=O)=O` [Tazobactam, tazobactam], the “binding to human plasma proteins” value with human plasma proteins was roughly 30%. The “free-drug % T>threshold target” value in data set [1] is given as 65.9.

Turning to `Cn1c(N)c(NC(=O)NCCN)c[n+]1CC1=C(C(=O)O)N2C(=O)[C@@H](NC(=O)/C(=N\OC(C)(C)C(=O)O)c3nsc(N)n3)[C@H]2SC1` [Ceftolozane, (6R,7R)-3-[(5-amino-4-{[(2-aminoethyl)carbamoyl]amino}-1-methyl-1H-pyrazol-2-ium-2-yl)methyl]-7-({(2Z)-2-(5-amino-1,2,4-thiadiazol-3-yl)-2-[(1-carboxy-1-methylethoxy)imino]acetyl}amino)-8-oxo-5-thia-1-azabicyclo[4.2.0]oct-2-ene-2-carboxylate], in “clinical”, the total exposure AUC(0-inf) worked out at 537 µg·h/mL, the AUC(0-t) came to 511 µg·h/mL, the Vd was 13.8 L and the clearance was 16.7 mL/min. In addition, the half-life in “clinical” was 11.1 h.

By AUC(0-inf) is commonly meant the area under the concentration-time curve extrapolated to infinity. Usually AUC(0-t) stands for the area under the concentration-time curve up to a stated or last time point. A low value points to less exposure. By Vd is commonly meant a proportionality between amount in the body and measured concentration, not a real space. In general, clearance refers to a measure of how efficiently the substance is removed, as volume per time. The term half-life denotes the time needed for the level to fall by half in the phase considered. Low values mean fast loss, high ones slow loss.

The values above are taken from patent US10933053B2, “Treating infections with ceftolozane/tazobactam in subjects having impaired renal function” (MERCK SHARP & DOHME CORP., priority 2013, dated 2021).
